Results from US11168073B2, “3,3-difluoroallylamines or salts thereof and pharmaceutical compositions comprising the same” (YUHAN CORPORATION, priority 2018, dated 2021).
Structures can show the parent of a compound that is named as a salt.

Columns and labels:
Assay type in all cases: biochemical
recombinant human VAP-1 = target: T1, recombinant human VAP-1 (Homo sapiens, UniProt Q16853); test: Activity evaluation on recombinant human VAP-1 (Amplex Red/HRP-coupled hydrogen peroxide assay, benzylamine substrate); settings: recombinant human VAP-1, benzylamine substrate; read-out: Inhibitory Activity (IC50, nM) human VAP-1
T1 construct: purchased R&D systems
T1 sequence (Q16853 1-763): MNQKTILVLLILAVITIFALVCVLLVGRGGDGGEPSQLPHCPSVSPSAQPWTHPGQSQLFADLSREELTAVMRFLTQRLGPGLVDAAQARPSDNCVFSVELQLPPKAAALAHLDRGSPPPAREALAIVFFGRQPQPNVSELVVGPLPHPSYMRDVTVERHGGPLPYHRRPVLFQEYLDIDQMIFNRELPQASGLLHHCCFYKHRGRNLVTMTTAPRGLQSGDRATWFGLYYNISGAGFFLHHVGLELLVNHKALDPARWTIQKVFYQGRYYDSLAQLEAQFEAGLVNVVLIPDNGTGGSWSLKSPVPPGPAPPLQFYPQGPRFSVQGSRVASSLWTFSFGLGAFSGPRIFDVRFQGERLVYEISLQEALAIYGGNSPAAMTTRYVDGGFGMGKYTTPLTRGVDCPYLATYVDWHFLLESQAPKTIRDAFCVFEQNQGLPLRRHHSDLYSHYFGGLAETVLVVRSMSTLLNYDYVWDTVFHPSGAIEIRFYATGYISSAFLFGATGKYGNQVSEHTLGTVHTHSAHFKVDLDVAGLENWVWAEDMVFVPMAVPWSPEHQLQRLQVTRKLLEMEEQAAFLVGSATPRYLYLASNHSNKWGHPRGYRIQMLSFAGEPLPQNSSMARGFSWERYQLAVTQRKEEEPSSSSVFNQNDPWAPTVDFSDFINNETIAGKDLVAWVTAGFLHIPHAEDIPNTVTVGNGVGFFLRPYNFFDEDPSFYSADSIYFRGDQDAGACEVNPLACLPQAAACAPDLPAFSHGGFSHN
Procedure, shortened: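 Hydrogen peroxide from benzylamine (1 mM) oxidation by human recombinant VAP-1 detected via HRP-coupled Amplex Red (200 uM) fluorescence, kinetic over 1–2 h. Enzyme and compound preincubated 30 min at 37 °C, pH 7.4 phosphate; 8-point dose response, signal-rate decrease versus DMSO control fitted to four-parameter logistic for IC50.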

[1] = target: T2, recombinant human MAO-A (monoamine oxidase-A) (Homo sapiens, UniProt P21397); test: Activity evaluation on recombinant human MAO-A (Amplex Red/HRP-coupled assay, 0.5 mM tyramine substrate); settings: 0.5 mM tyramine substrate, read-out: Inhibitory Activity (IC50, nM) MAO-A
T2 construct: purchased Sigma-Aldrich
T2 sequence (P21397 1-527): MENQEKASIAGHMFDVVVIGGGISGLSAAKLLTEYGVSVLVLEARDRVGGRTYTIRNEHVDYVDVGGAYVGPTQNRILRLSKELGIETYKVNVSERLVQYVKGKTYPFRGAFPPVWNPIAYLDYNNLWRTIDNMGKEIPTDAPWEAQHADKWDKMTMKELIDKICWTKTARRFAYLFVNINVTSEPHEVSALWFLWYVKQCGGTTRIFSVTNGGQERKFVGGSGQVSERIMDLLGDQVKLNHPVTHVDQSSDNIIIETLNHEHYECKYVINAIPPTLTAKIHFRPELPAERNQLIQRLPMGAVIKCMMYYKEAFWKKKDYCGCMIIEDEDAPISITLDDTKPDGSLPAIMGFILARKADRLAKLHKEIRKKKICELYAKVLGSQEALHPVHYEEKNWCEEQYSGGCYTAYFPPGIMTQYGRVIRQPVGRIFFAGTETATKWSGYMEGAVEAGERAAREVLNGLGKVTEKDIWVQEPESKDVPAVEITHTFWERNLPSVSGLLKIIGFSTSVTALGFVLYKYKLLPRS
Procedure, shortened: (§1)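 8-pt 1:3 dilution series, final DMSO <1%; 30 min 37 °C preincubation w/ enzyme, 50 mM Na phosphate pH 7.4; + 200 uM Amplex Red, 1 U/mL HRP, substrate (MAO-A tyramine 0.5 mM; MAO-B benzylamine 1 mM; DAO putrescine 1 mM); fluor. rate 544/590 nm, 1-2 h; 4-param IC50.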

[2] = target: T3, recombinant human MAO-B (monoamine oxidase-B) (Homo sapiens, UniProt P27338); test: Activity evaluation on recombinant human MAO-B (Amplex Red/HRP-coupled assay, 1 mM benzylamine substrate); settings: 1 mM benzylamine substrate, read-out: Inhibitory Activity (IC50, nM) MAO-B
T3 construct: purchased Sigma-Aldrich
T3 sequence (P27338 1-520): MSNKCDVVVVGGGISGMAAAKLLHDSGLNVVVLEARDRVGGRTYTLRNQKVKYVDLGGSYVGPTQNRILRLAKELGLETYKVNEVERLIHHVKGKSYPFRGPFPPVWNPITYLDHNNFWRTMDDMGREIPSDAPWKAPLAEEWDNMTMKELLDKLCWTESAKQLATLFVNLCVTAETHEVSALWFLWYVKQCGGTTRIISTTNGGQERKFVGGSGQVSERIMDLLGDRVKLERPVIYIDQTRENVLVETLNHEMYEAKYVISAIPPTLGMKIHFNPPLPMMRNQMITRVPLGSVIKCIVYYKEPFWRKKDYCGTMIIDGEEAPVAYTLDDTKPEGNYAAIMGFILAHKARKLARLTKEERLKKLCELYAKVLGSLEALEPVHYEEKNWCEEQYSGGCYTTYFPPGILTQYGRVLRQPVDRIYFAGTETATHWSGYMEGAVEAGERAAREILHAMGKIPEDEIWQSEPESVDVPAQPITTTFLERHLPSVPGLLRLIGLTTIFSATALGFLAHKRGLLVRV
Procedure, shortened: as §1

[3] = target: T4, recombinant human DAO (diamine oxidase) (Homo sapiens, UniProt P19801); test: Activity evaluation on recombinant human DAO (Amplex Red/HRP-coupled assay, 1 mM putrescine substrate); settings: 1 mM putrescine substrate, read-out: Inhibitory Activity (IC50, nM) DAO
T4 construct: purchased R&D systems
T4 sequence (P19801 20-751): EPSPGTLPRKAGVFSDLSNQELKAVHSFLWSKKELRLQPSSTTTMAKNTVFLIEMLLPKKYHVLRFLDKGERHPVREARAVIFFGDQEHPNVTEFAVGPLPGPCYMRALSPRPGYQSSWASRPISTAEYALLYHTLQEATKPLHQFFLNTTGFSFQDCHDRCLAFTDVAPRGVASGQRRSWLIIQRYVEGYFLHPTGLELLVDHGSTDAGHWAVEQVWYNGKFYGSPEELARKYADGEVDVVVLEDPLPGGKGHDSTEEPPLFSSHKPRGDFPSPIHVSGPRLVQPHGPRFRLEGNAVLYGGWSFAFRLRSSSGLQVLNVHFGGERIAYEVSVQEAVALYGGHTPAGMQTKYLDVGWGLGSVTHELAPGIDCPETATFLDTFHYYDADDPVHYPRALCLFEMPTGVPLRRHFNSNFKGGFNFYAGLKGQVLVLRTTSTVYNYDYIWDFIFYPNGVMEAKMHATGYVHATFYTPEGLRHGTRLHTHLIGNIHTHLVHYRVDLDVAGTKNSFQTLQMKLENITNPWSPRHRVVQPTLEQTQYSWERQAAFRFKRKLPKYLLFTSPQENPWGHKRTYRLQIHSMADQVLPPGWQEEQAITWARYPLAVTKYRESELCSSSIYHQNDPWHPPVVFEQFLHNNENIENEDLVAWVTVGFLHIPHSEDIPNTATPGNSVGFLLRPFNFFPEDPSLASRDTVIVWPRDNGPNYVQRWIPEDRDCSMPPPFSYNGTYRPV
Procedure, shortened: as §1

IC50 (recombinant human VAP-1) [nM] | IC50 [1] [nM] | IC50 [2] [nM] | IC50 [3] [nM] | Structure (SMILES)
1.1 | > 100000 | 13700 | 1500 | CN(C)c1cc(-c2cccc(-n3cnn(CC(CN)=C(F)F)c3=O)n2)ccc1F [Example 217, 2-[2-(aminomethyl)-3,3-difluoro-allyl]-4-[6-[3-(dimethylamino)-4-fluoro-phenyl]-2-pyridyl]-1,2,4-triazol-3-one Trifluoroacetate]
0.8 | > 100000 | > 100000 | 130 | CCn1cc(-c2cccc(-n3cnn(CC(CN)=C(F)F)c3=O)n2)ccc1=O [Example 218, 5-[6-[1-[2-(aminomethyl)-3,3-difluoro-allyl]-5-oxo-1,2,4-triazol-4-yl]-2-pyridyl]-1-ethyl-pyridin-2-one Trifluoroacetate]
0.2 | > 100000 | 68500 | 47 | NCC(Cn1ncn(-c2cccc(-c3ccc4c(c3)NC(=O)OC4)n2)c1=O)=C(F)F [Example 219, 7-[6-[1-[2-(aminomethyl)-3,3-difluoro-allyl]-5-oxo-1,2,4-triazol-4-yl]-2-pyridyl]-1,4-dihydro-3,1-benzoxazin-2-one Trifluoroacetate]
1.1 | > 100000 | > 100000 | 11000 | Cc1cc(-c2ccc(N3CCNCC3)nc2)cnc1-n1cnn(CC(CN)=C(F)F)c1=O [Example 220, 2-[2-(aminomethyl)-3,3-difluoro-allyl]-4-[3-methyl-5-(6-piperazin-1-yl-3-pyridyl)-2-pyridyl]-1,2,4-triazol-3-one Ditrifluoroacetate]
0.3 | 20000 | 9000 | 2700 | Cc1cc(-c2ccc3c(c2)NC(=O)CO3)cnc1-n1cnn(CC(CN)=C(F)F)c1=O [Example 221, 6-[6-[1-[2-(aminomethyl)-3,3-difluoro-allyl]-5-oxo-1,2,4-triazol-4-yl]-5-methyl-3-pyridyl]-4H-1,4-benzoxazin-3-one Trifluoroacetate]
1 | > 100000 | > 100000 | 4000 | COCCNc1ncc(-c2cnc(-n3cnn(CC(CN)=C(F)F)c3=O)c(C)c2)cn1 [Example 222, 2-[2-(aminomethyl)-3,3-difluoro-allyl]-4-[5-[2-(2-methoxyethylamino)pyrimidin-5-yl]-3-methyl-2-pyridyl]-1,2,4-triazol-3-one Trifluoroacetate]
1.5 | > 10000 | 38000 | 37000 | Cc1cc(-c2ccc3c(c2)OCCN3C)cnc1-n1cnn(CC(CN)=C(F)F)c1=O [Example 223, 2-[2-(aminomethyl)-3,3-difluoro-allyl]-4-[3-methyl-5-(4-methyl-2,3-dihydro-1,4-benzoxazin-7-yl)-2-pyridyl]-1,2,4-triazol-3-one Trifluoroacetate]
0.8 | > 100000 | 1900 | 5500 | COc1cc(-c2cnc(-n3cnn(CC(CN)=C(F)F)c3=O)c(C)c2)cc(OC)c1OC [Example 224, 2-[2-(aminomethyl)-3,3-difluoro-allyl]-4-[3-methyl-5-(3,4,5-trimethoxyphenyl)-2-pyridyl]-1,2,4-triazol-3-one Trifluoroacetate]
0.5 | > 100000 | 1600 | 14000 | COc1ccc(-c2cnc(-n3cnn(CC(CN)=C(F)F)c3=O)c(C)c2)cn1 [Example 225, 2-[2-(aminomethyl)-3,3-difluoro-allyl]-4-[5-(6-methoxy-3-pyridyl)-3-methyl-2-pyridyl]-1,2,4-triazol-3-one Trifluoroacetate]
0.5 | > 100000 | 11000 | > 100000 | Cc1cc(-c2ccc3sc(N)nc3c2)cnc1-n1cnn(CC(CN)=C(F)F)c1=O [Example 226, 4-[5-(2-amino-1,3-benzothiazol-5-yl)-3-methyl-2-pyridyl]-2-[2-(aminomethyl)-3,3-difluoro-allyl]-1,2,4-triazol-3-one Trifluoroacetate]
0.7 | > 100000 | 340 | 4800 | Cc1cc(-c2ccc3nonc3c2)cnc1-n1cnn(CC(CN)=C(F)F)c1=O [Example 227, 2-[2-(aminomethyl)-3,3-difluoro-allyl]-4-[5-(2,1,3-benzoxadiazol-5-yl)-3-methyl-2-pyridyl]-1,2,4-triazol-3-one Trifluoroacetate]
0.6 | > 100000 | 3300 | 7700 | Cc1cc(-c2cnc3[nH]ccc3c2)cnc1-n1cnn(CC(CN)=C(F)F)c1=O [Example 228, 2-[2-(aminomethyl)-3,3-difluoro-allyl]-4-[3-methyl-5-(1H-pyrrolo[2,3-b]pyridin-5-yl)-2-pyridyl]-1,2,4-triazol-3-one Trifluoroacetate]
0.6 | > 10000 | 4100 | 97000 | Cc1cc(-c2ccc3ocnc3c2)cnc1-n1cnn(CC(CN)=C(F)F)c1=O [Example 229, 2-[2-(aminomethyl)-3,3-difluoro-allyl]-4-[5-(1,3-benzoxazol-5-yl)-3-methyl-2-pyridyl]-1,2,4-triazol-3-one Trifluoroacetate]
